Laboratory results from patent US20100112617A1, “Evaluating RTK Target Drugs” (Apocell, Inc, priority 2007, published 2010).
One block for each molecule: values may come before it.

How the values were obtained:
Assay type in all cases: cell-based
EGFR = target: T1, EGFR (Homo sapiens, UniProt P00533); assay: pEGFR and tEGFR levels in EGF-stimulated HT-29 colon cancer cells by laser scanning cytometry; settings: HT-29 cells; for pEGFR fold change in level / pEGFR/tEGFR fold change in level / tEGFR fold change in level: 0% FCS, EGF 100 ng/ml for 5 min
T1 construct: host or cells: HT-29 colon cancer cells
T1 sequence (P00533 25-1210): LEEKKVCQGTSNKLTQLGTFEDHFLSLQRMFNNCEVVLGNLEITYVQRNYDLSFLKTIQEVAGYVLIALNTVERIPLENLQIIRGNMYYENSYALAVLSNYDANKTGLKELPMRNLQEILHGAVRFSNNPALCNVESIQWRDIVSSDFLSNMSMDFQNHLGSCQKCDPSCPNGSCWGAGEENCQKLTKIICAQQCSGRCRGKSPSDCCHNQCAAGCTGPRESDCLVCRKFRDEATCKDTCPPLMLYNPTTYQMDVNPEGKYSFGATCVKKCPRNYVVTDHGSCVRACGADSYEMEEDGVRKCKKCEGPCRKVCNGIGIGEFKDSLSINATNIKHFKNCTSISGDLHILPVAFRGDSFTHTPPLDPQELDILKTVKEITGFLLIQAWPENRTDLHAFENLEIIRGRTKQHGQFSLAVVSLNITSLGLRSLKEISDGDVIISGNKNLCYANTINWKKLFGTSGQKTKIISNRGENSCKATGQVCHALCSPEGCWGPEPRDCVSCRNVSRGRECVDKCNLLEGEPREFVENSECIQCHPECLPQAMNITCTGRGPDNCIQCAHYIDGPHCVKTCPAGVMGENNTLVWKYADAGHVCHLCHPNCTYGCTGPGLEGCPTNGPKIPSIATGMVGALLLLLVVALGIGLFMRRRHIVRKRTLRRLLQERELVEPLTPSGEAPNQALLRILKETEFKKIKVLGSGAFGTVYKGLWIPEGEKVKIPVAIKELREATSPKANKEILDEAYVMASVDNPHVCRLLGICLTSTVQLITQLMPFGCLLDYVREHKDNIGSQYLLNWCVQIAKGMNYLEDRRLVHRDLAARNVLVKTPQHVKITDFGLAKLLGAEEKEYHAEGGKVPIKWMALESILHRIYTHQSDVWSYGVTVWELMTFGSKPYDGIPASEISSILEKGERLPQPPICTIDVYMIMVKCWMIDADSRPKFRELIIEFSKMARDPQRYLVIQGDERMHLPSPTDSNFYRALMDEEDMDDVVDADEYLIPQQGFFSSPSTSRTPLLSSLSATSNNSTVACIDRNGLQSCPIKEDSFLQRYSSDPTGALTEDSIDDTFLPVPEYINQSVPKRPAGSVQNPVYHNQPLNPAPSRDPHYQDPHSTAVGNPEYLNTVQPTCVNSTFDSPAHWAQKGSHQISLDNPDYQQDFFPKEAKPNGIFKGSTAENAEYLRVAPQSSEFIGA
Procedure: We sought to test RTK response to RTKI's and thus measured both phospho-RTK and total RTK using a known RTKI challenge reagent. AEE788 (NOVARTIS®) is an oral multiple-receptor tyrosine kinase inhibitor of EGFR, human epidermal growth factor receptor 2 (HER-2), and vascular endothelial growth factor receptor (VEGFR). Thus, we measured EGFR response to AEE788 using antibody quantitation of the two parameters. HT-29 colon cancer cells were treated with increasing doses of AEE788, (0, 4, 20, 100, and 1000 nM) for 4 hours in serum-free media followed by EGF stimulation at 100 ng/ml for 5 minutes. Cells were then fixed and stained with anti-phospho-EGFR (P-EGFR-Y1173) antibody followed by a secondary antibody conjugated with a fluorescent probe. The mean fluorescence index (MFI) of pEGFR was quantified by laser scanning cytometry (LSC) […] and the results are shown in Table 2.

PDGFR-β [1] = target: T2, PDGFR-β (Homo sapiens, UniProt P09619); assay: pPDGFR-β/tPDGFR-β ratio in PDGF-stimulated GIST cells; set-up: endogenous in cells; host or cells: GIST (gastrointestinal stromal tumor) cells; settings: for GIST pPDGFR-β/tPDGFR-β fold ratio change: PDGF 50 ng/ml 10 min
T2 sequence (P09619 33-1106): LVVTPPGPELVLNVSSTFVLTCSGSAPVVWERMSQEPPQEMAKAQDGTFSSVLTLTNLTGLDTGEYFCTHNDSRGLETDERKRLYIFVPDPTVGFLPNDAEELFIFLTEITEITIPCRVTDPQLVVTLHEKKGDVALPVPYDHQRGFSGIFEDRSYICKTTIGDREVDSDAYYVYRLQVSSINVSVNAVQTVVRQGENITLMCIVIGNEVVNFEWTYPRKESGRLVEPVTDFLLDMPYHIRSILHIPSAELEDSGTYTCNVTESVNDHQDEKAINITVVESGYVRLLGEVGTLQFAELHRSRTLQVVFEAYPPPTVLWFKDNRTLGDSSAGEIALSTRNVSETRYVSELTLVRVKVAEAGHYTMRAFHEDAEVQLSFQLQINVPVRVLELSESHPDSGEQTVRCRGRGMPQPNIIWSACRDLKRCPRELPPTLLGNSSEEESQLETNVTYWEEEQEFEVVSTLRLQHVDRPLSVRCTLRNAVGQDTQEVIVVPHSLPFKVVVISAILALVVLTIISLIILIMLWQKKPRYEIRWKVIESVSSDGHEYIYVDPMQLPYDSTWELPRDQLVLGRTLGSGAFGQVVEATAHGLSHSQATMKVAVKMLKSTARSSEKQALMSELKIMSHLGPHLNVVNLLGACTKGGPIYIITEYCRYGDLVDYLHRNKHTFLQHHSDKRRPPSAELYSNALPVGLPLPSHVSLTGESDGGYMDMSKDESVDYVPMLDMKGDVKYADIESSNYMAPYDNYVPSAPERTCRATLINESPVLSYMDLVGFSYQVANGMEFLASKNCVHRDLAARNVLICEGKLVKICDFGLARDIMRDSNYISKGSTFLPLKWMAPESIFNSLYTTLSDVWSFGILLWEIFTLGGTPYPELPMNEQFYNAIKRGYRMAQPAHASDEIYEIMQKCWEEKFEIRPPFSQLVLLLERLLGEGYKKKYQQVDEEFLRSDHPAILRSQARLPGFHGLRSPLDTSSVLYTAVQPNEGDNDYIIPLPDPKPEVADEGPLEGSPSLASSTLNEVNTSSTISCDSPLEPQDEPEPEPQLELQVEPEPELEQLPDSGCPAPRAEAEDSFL
Description: (§1) Thus, we repeated the experiment using additional RTKs and RTKIs. We used a known RTKI challenge reagent SU11248, which blocks phosphorylation of several kinases, including VEGFR2 (KDR), stem cell tyrosine kinase receptor (KIT), platelet-derived growth factor receptor (PDGFR), and fms-related tyrosine kinase 3 (FLT3).

PDGFR-β [2] = target: T2, PDGFR-β; assay: pPDGFR-β/tPDGFR-β ratio in PDGF-stimulated HUVEC cells; set-up: endogenous in cells; host or cells: HUVEC; settings: for HUVEC pPDGFR-β/tPDGFR-β fold ratio change: PDGF 50 ng/ml 10 min
Description: as §1

pEGFR fold change in level (EGFR; 4 nM for 4 h): 1.36 fold | pEGFR/tEGFR fold change in level (EGFR; 4 nM for 4 h): 0.65 fold | tEGFR fold change in level (EGFR; 4 nM for 4 h): 2.11 fold | pEGFR fold change in level (EGFR; 20 nM for 4 h): 0.97 fold | pEGFR/tEGFR fold change in level (EGFR; 20 nM for 4 h): 0.21 fold | tEGFR fold change in level (EGFR; 20 nM for 4 h): 4.61 fold | pEGFR fold change in level (EGFR; 100 nM for 4 h): 0.70 fold | pEGFR/tEGFR fold change in level (EGFR; 100 nM for 4 h): 0.16 fold | tEGFR fold change in level (EGFR; 100 nM for 4 h): 4.37 fold | pEGFR fold change in level (EGFR; 1000 nM for 4 h): 0.52 fold | pEGFR/tEGFR fold change in level (EGFR; 1000 nM for 4 h): 0.15 fold | tEGFR fold change in level (EGFR; 1000 nM for 4 h): 3.53 fold | total EGFR levels, in words (EGFR; 4-1000 nM): up-regulated total EGFR levels
SMILES: CCN1CCN(Cc2ccc(-c3cc4c(N[C@H](C)c5ccccc5)ncnc4[nH]3)cc2)CC1 [AEE788]
EGF-induced phosphorylation of EGFR (pEGFR), in words (EGFR; 4-1000 nM): inhibited EGF-induced phosphorylation of its receptor (pEGFR) in a dose-dependent manner

pPDGFR-β/tPDGFR-β ratio, in words (PDGFR-β [1]): decreased in a dose-dependent manner | GIST pPDGFR-β/tPDGFR-β fold ratio change (PDGFR-β [1]; 0.01 μM): 0.97 ± 0.05 fold | GIST pPDGFR-β/tPDGFR-β fold ratio change (PDGFR-β [1]; 0.1 μM): 0.00 ± 0.59 fold | GIST pPDGFR-β/tPDGFR-β fold ratio change (PDGFR-β [1]; 1 μM): 0.00 ± 0.08 fold | pPDGFR-β/tPDGFR-β ratio, in words (PDGFR-β [2]): decreased in a dose-dependent manner | HUVEC pPDGFR-β/tPDGFR-β fold ratio change (PDGFR-β [2]; 0.01 μM): 2.42 ± 0.36 fold | HUVEC pPDGFR-β/tPDGFR-β fold ratio change (PDGFR-β [2]; 0.1 μM): 1.48 ± 0.15 fold | HUVEC pPDGFR-β/tPDGFR-β fold ratio change (PDGFR-β [2]; 1 μM): 1.40 ± 0.23 fold
SMILES: CCN(CC)CCNC(=O)c1c(C)[nH]c(/C=C2\C(=O)Nc3ccc(F)cc32)c1C [SU11248]
